The values below come from patent publication US8563599B2, “Methods for synthesizing glycinols, glyceollins I and II, compositions of selected intermediates, and therapeutic uses thereof” (The United States of America, represented by the Secretary …, priority 2008, dated 2013).

The nature of data set [1]: ABTS antioxidant assay. The settings on record: for Trolox Equivalents (μmol/μmol): IC50 compared to IC50 of trolox; for IC50: concentration causing 50% reduction in ABTS absorbance, 2 min, room temperature. On the procedure:
This example illustrates how the biological data pertaining to antioxidant properties of the compounds was obtained.
The antioxidant activity of each test agent was assayed by a colorimetric assay described in the literature that utilizes 2,2′-azinobis-3-ethylbenzothiazoline-6-sulfonic acid (ABTS). ABTS has an intense blue-green color in its free radical form, but is colorless without the free radical. Free radical ABTS was generated by reacting 7 mM ABTS with 2.45 mM potassium persulfate in water for 24-48 hr at room temperature in the dark. Test agents were diluted in 50/50 phosphate buffered saline (PBS)/ethanol to a series of five concentrations, then added to a 96 well half-area plate using 50 μl per well with four wells for each agent concentration. Four control wells containing 50/50 PBS/ethanol without test agents were setup for comparison for each test agent. Trolox, a water-soluble form of vitamin E commonly employed as an antioxidant standard, was also tested in each set of experiments. The free radical ABTS solution was diluted with 50/50 PBS/ethanol to give an absorbance of 1.4 absorbance units at 734 nm, and was then added 50 μl per well to two of the four wells for each condition. The other two wells for each condition received 50 μl of 50/50 PBS/ethanol without ABTS to provide background correction absorbance readings. All dilution and plate loading operations were performed on a Packard Multiprobe II HTS automated liquid handling system. […] Readings for wells with ABTS were background corrected using the corresponding wells containing matching test agent levels without ABTS. The background corrected absorbance of each test agent concentration was then compared to the control wells without agent to determine the percent decrease in color intensity, corresponding to the percent of ABTS free radical reduction. A fit of percent absorbance decrease versus test agent concentration was then used to estimate the concentration causing a 50% reduction in absorbance, called the IC50. The test agent IC50 values were then compared to the IC50 of trolox to calculate the trolox equivalents (TE, moles of trolox needed to give the same level of antioxidant activity as one mole of test agent) for each agent. Smaller IC50 values or larger TE values indicate higher levels of antioxidant activity.

The test system of data set [2] is estrogen receptor (ERE-luciferase) in MCF7 ER-positive cells. Description: ERE-Luciferase assay, estrogenic and antiestrogenic activity. The class given is cell-based, human. On the procedure:
Cell Culture Studies (MCF7 ER-Positive Cells)
Human cancer cell lines derived from breast (MCF7, ER-positive cells) were cultured in 75 ml culture flasks in DMEM (Invitrogen, Co.) supplemented with 10% FBS (Life Technologies, Inc., Gaithersburg, Md.), basic minimum MEM essential (50×, Invitrogen Co.) and MEM non-essential (100×, Invitrogen, Co.) amino acids, sodium pyruvate (100× Invitrogen Co.), antimicotic-antibiotic (10,000 U/mL penicillin G sodium; 10,000 μg/mL streptomycin sulphate; 25 μg/mL amphotericin B as Fungizone®), and human recombinant insulin (4 mg/mL. Invitrogen Co.). The culture flasks were maintained in a tissue culture incubator in a humidified atmosphere of 5% CO2 and 95% air at 37° C. For estrogen studies, cells were washed with PBS 3 times and grown in phenol red-free DMEM supplemented with 5% dextran-coated charcoal-treated FBS (5% CS-FBS) for 72 h before plating for each particular experiment.
Results were then assessed by using an ERE-luciferase assay. The cells were plated in 24 well plates at 5×10^5 cells/well in the same media and allowed to attach overnight. After 18 hours, cells were transfected for 5 h in serum supplemented-free DMEM with […] pGL2-ERE2X-TK-luciferase plasmid, using 6 μl of effectine (Qiagen)/μg of DNA. After 5 h the transfection medium was removed and replaced with phenol red-free DMEM supplemented with 5% CS-FBS containing vehicle, 17β-estradiol, GLY I, or 17β-estradiol plus GLY I, and incubated at 37° C. After 18 h the medium was removed, and 100 μl of lysis buffer was added per well and then incubated for 15 min at room temperature. Cell debris was pelleted by centrifugation at 15000×g for 5 min. cell extracts were normalized for protein concentration using reagent according to the protocol supplied by the manufacturer (Bio-Rad Laboratories, Inc., Hercules, Calif.). Luciferase activity for the cell extracts was determined using Luciferase substrate (Promega Corp.) in an Autoluminat Plus luminometer.

The test system of data set [3] is NCI/ADR-RES cells. As to the kind of experiment: Growth inhibition assay (NCI method, sulforhodamine B), NCI/ADR-RES. The settings on record: multidrug resistant cell line, 48 hr, read-out: GI50 (μM) NCI/ADR-RES. It is filed as cell-based, human.
Data set [4] deals with MCF12A cells. As to the kind of experiment: Growth inhibition assay (NCI method, sulforhodamine B), MCF12A. It is filed as cell-based, human. The settings on record: non-cancerous 'normal' human breast epithelial cells, 48 hr, read-out: GI50 (μM) MCF12A.
The subject of data set [5] is MCF7 cells. Description: Growth inhibition assay (NCI method, sulforhodamine B), MCF7. The settings on record: 10% serum; for GI50: human breast cancer cells, 48 hr, read-out: GI50 (μM) MCF7. It is filed as cell-based, human.
In data set [6] the target is T1, hrER-α (alpha estrogen receptor) (Homo sapiens, UniProt P03372).
T1 sequence (P03372 1-595): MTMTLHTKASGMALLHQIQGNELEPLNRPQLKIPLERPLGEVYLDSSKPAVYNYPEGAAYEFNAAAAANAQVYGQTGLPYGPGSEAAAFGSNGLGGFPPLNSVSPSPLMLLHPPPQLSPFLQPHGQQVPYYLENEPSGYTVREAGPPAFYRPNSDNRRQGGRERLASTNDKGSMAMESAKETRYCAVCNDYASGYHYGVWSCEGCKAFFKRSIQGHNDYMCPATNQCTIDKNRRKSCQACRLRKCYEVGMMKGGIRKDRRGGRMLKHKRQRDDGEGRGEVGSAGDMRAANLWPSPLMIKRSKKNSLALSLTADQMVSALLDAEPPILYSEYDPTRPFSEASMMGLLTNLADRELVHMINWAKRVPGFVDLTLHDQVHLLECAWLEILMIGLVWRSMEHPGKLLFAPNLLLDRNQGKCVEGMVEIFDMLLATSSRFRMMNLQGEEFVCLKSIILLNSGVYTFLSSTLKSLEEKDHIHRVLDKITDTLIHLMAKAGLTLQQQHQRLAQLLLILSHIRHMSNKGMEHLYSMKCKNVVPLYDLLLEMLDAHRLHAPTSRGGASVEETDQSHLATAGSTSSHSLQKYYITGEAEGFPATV
As to the kind of experiment: ER-α competition binding assay (fluorescence anisotropy, ES2 displacement). The settings on record: ERα/ES2 complex, 2 h room temperature, FIG. 9; read-out: IC50 for 50% inhibition of a standard's binding with the alpha estrogen receptor (ER-α). On the procedure: This example illustrates how the biological data pertaining to interaction of the compounds with the alpha-estrogen receptors was obtained.
A 200 μM working stock solution of GLY I was prepared from an original 10 mM DMSO stock solution. The working stock solution was serially diluted in triplicate in screening buffer to the desired concentrations. hrER-α and ES2 were added to a final concentration of 2 nM and 3 nM, respectively. Negative (ER+ES2, equivalent to 0% inhibition) and positive (free ES2, equivalent to 100% inhibition) controls in the absence of competitor were measured in duplicate. After 2 h at room temperature, the anisotropy values in each tube were measured using the Beacon 2000 system CO. The anisotropy values were converted to percent inhibition using the following formula: I%=(A0−A)/(A0−A100)×100, where I% is the percent inhibition, A0 is 0% inhibition, A100 is 100% inhibition, and A represents the observed value. Polarization values were converted to percent inhibition to make the data more intuitive to the reader and to normalize the day-to-day differences in the starting 0% inhibition polarization values. The percent inhibition versus competitor concentration curves were analyzed by nonlinear least-squares curve fitting and yielded an IC50 value (the concentration of competitor needed to displace half of the bound ligand). To compare binding affinities of the test compounds to those reported in the literature, IC50 values were converted to relative binding affinities (RBA) using E2 as a standard. The E2 RBA was set equal to 100 […].
A general note: Polarisation of emitted light reports the rotation of a fluorescent probe.

Data set [7] is described as follows: pH stability study by HPLC. The class given is physicochemical. The text has this: This instability could derive by formation of a quinone-methide from the now unprotected ‘Southern’ ring's phenolic hydroxyl-group. Thus, mildly acidic reagents that might be used for de-protection were explored. In the end, NEt3.3 HF (see, e.g., L. D. Julian, J. S. Newcom, W. R. Roush, J. Am. Chem. Soc. 2005, 127, 6186-6187, which is hereby incorporated by reference in its entirety), which provides a pH in the range of 4-5 when run on the 0.1 mmole scale in anhydrous acetonitrile, was most successfully utilized for this transformation. Even with this approach, however, it is important to adjust the pH of the post-reaction medium (as readily followed by TLC) to pH 7-8 by addition of triethylamine so as to avoid decomposition during subsequent workup. Final compounds are obtained in the range of ca. 65-70% yields. Assignment of stereochemistry for these final materials can be accomplished with NMR and CD. In addition, at this point it is convenient to take advantage of chiral HPLC wherein authentic materials from natural sources can be used as standards along with the synthesized racemic materials.

Like-named read-outs stand apart in the source and are kept apart here. Bounds are passed on as bounds.

One may read the IC50 as the concentration that gives 50% inhibition. As for `Oc1ccc2c(c1)OC[C@@]1(O)c3ccc(O)cc3O[C@@H]21` (racemic) [Glycinol (+/−), (+) Glycinol], in data set [1] (ABTS assay, summary of Table 1), the “antioxidant activity relative to the standards daidzein and genistein” value is reported as “about equiactive to the standards”. For the same molecule, the “Trolox Equivalents (μmol/μmol)” value in data set [1] turned out to be 2.8 ± 0.2 μmol/μmol. The molecule also displayed an IC50 in data set [1] of 3.5 ± 0.3 µM. For the same molecule, the “estrogenic activity (ERE-Luciferase)” value in data set [2] (concentration not given) was “significantly stronger estrogenic material”. The GI50 in data set [3], in data set [4] and in data set [5] was more than 1000 µM in each case. Moreover, the “growth inhibitory activity” value in data set [5] (human breast cell lines) is on record as “lack of growth inhibitory activity”.
For the molecule `CC1(C)C=Cc2c(ccc3c2OC[C@@]2(O)c4ccc(O)cc4O[C@@H]32)O1` [7 (−), Glyceollin I (Natural Glyceollin I)], the “Trolox Equivalents (μmol/μmol)” value in data set [1] stood at 1.8 ± 0.1 μmol/μmol. Besides, the results for the IC50 in data set [1] and in data set [6] were 5.3 ± 0.3 µM and 1.4 µM, respectively. For the same molecule, the “anti-estrogenic activity (ERE-Luciferase)” value in data set [2] (at 10-25 μM) was “only anti-estrogenic activity”. The GI50 in data set [3] (Homo sapiens, NCI/ADR-RES) came out at 27 µM; in data set [4] (MCF-12A) it was 25 µM; in data set [5] (MCF7), 12 µM.
Turning to `CC1(C)C=Cc2c(ccc3c2OC[C@@]2(O)c4ccc(O)cc4O[C@@H]32)O1` [isolated GLY I, reference compound], the concentration for half-maximal inhibition (IC50) in data set [6] came out at 1.1 µM.
Take `CC1(C)C=Cc2c(ccc3c2OC[C@]2(O)c4ccc(O)cc4O[C@H]32)O1` [7 (+), (+) Glyceollin I (Unnatural Glyceollin I)]: the “Trolox Equivalents (μmol/μmol)” value in data set [1] was 1.8 ± 0.1 μmol/μmol. Also, the values for the IC50 in data set [1] and in data set [6] were 5.2 ± 0.3 µM and 1.4 µM, respectively. In addition, in data set [2] (at 10-25 μM), the “estrogenic activity (ERE-Luciferase)” value is recorded as “modest estrogenic activity”. In data set [2] (concentration not given), the “anti-estrogenic effects (ERE-Luciferase)” value is reported as “only slight anti-estrogenic effects”. Also, the GI50 in data set [3] (Homo sapiens, NCI/ADR-RES) was 38 µM; in data set [4] (MCF-12A), 31 µM; in data set [5] (MCF7) it was 21 µM.
`CC1(C)C=Cc2c(ccc3c2OCC2(O)c4ccc(O)cc4OC32)O1` (racemic) [racemic (±)-GLY I, (+) Glyceollin I (Racemic Glyceollin I)]: the “anti-estrogenic activity (ERE-Luciferase)” value in data set [2] (at 10 μM, E2 at 100 pM) is “strong anti-estrogenic activity”. In addition, in data set [2] (concentration not given), the “estrogenic activity (ERE-Luciferase)” value was “no significant estrogenic activity”. For the same molecule, the 50% inhibitory concentration (IC50) in data set [6] was 1.4 µM. The “stability of ring system (HPLC)” value in data set [7] (acidic pH as low as 4) is recorded as “reasonable stability”; in data set [7] (basic pH above 8) it was “not stable”.
